# Source: US12310364B2, “Safened compositions comprising pyridine carboxylate herbicides and cloquintocet” (Corteva Agriscience LLC, priority 2018, dated 2025)
# Where “and” joins values, the source holds several entries; their conditions need not be identical. Equal entries are not always repeated.
# Columns and labels:
# Type in all cases: in vivo
# [1] = tested on: Triticum aestivum (spring wheat), TRZAS; test: Greenhouse postemergence safening trial, visual injury on spring wheat
# Experimental: (§1) Greenhouse Trial Methodology-Evaluation of Postemergence Herbicidal […] in Crops […] When required to ensure good germination and healthy plants, a fungicide treatment and/or other chemical or physical treatment was applied. The plants were grown for 7-36 days (d) in a greenhouse with an approximate 14-hour (h) photoperiod which was maintained at about 23° C. during the day and 22° C. during the night. Nutrients and water were added on a regular basis and supplemental lighting was provided with overhead metal halide 1000-Watt lamps as necessary. The plants were employed for testing when they reached the second or third true leaf stage. Emulsifiable concentrates of each of each pyridine carboxylate herbicide (Compound A or Compound B) were prepared at 100 grams acid equivalent per liter (g ae/L). […] The concentrated stock solutions were further diluted with an aqueous mixture of 1.25% […] or MSO® Concentrate with LECI-TECH® to obtain stock solutions at reduced application rates for each herbicide. Spray solutions of the herbicide combinations (Compound A or Compound B plus safener) were prepared by adding weighed amounts or aliquots of the safener to the stock solutions of Compound A or Compound B to form 12-mL spray solutions in two-way combinations. […] Control plants were sprayed in the same manner with the solvent blank. All herbicide (component a) application rates are given as “g ae/ha” and all safener (component b) application rates are given as “g ai/ha.” The treated plants and control plants were placed in a greenhouse as described above and watered by sub-irrigation to prevent wash-off of the test compounds.
# [2] = tested on: Triticum aestivum (winter wheat), TRZAW; test: Greenhouse postemergence safening trial, visual injury on winter wheat
# Experimental: as §1
# [3] = tested on: Salsola kali (Russian thistle), SASKR; test: Greenhouse postemergence trial, visual injury on Russian thistle
# Experimental: as §1
# rice (ORYSA) = test: Greenhouse postemergence safening trial, visual injury on rice; settings: Table 19
# Description: (§2) Greenhouse Trial Methodology—Evaluation of Postemergence Herbicidal Safening in Crops
# (§3) Seeds of the desired test plant species were planted in a 90:10% v/v (volume/volume) mixture of PRO-MIX® BX (Premier Tech Horticulture, Quakertown, PA, USA) and PROFILE® GREENS GRADE™ (Profile Products LLC, Buffalo Grove, IL, USA) planting mixture, which typically has a pH of 5.2 to 6.2 and an organic matter content of at least 50 percent, in plastic pots with a surface area of 103.2 square centimeters (cm^2). When required to ensure good germination and healthy plants, a fungicide treatment and/or other chemical or physical treatment was applied. The plants were grown for 7-36 days (d) in a greenhouse with an approximate 14-hour (h) photoperiod which was maintained at about 23° C. during the day and 22° C. during the night. Nutrients and water were added on a regular basis and supplemental lighting was provided with overhead metal halide 1000-Watt lamps as necessary. The plants were employed for testing when they reached the second or third true leaf stage.
# (§4) Emulsifiable concentrates of each of each pyridine carboxylate herbicide (Compound A or Compound B) were prepared at 100 grams acid equivalent per liter (g ae/L). An aliquot of each emulsifiable concentrate was placed in a 25 mL glass vial and diluted with an aqueous mixture of 1.25% (v/v) ACTIROB® B esterified rapeseed oil (Bayer Crop Science, Research Triangle Park, NC, USA) or MSO® Concentrate with LECI-TECH® methylated soybean oil (Loveland Products, Loveland, CO, USA) to obtain concentrated stock solutions at the highest application rate for each herbicide, based upon a 12 milliliter (mL) application volume at a rate of 187 liters per hectare (L/ha). The concentrated stock solutions were further diluted with an aqueous mixture of 1.25% v/v ACTIROB® B or MSO® Concentrate with LECI-TECH® to obtain stock solutions at reduced application rates for each herbicide. Spray solutions of the herbicide combinations (Compound A or Compound B plus safener) were prepared by adding weighed amounts or aliquots of the safener to the stock solutions of Compound A or Compound B to form 12-mL spray solutions in two-way combinations. […]
# (§5) The treated plants and control plants were placed in a greenhouse as described above and watered by sub-irrigation to prevent wash-off of the test compounds. After 20-22 d, the condition of the test plants as compared with that of the control plants was determined visually and scored on a scale of 0 to 100 percent where 0 corresponds to no injury and 100 corresponds to complete kill.
# [4] = tested on: common sunflower (HELAN, Helianthus annuus); test: Greenhouse postemergence trial, visual injury on common sunflower
# Description: as §2, §3
# Emulsifiable concentrates of each of each pyridine carboxylate herbicide (Compound A or Compound B) were prepared at 100 grams acid equivalent per liter (g ae/L). An aliquot of each emulsifiable concentrate was placed in a 25 mL glass vial and diluted with an aqueous mixture of 1.25% (v/v) ACTIROB® B esterified rapeseed oil (Bayer Crop Science, Research Triangle Park, NC, USA) or MSO® Concentrate with LECI-TECH® methylated soybean oil (Loveland Products, Loveland, CO, USA) to obtain concentrated stock solutions at the highest application rate for each herbicide, based upon a 12 milliliter (mL) application volume at a rate of 187 liters per hectare (L/ha). The concentrated stock solutions were further diluted with an aqueous mixture of 1.25% v/v ACTIROB® B or MSO® Concentrate with LECI-TECH® to obtain stock solutions at reduced application rates for each herbicide. Spray solutions of the herbicide combinations (Compound A or Compound B plus safener) were prepared by adding weighed amounts or aliquots of the safener to the stock solutions of Compound A or Compound B to form 12-mL spray solutions in two-way combinations.
# The spray solutions were applied to the plant material with an overhead Mandel track sprayer equipped with 8002E nozzles calibrated to deliver 187 L/ha over an application area of 0.503 square meters (m^2) at a spray height of 18 inches (43 centimeters (cm)) above the average plant canopy. Control plants were sprayed in the same manner with the solvent blank. All herbicide (component a) application rates are given as “g ae/ha” and all safener (component b) application rates are given as “g ai/ha.”
# as §5
# [5] = tested on: blackgrass (ALOMY, Alopecurus myosuroides); test: Greenhouse postemergence trial, visual injury on blackgrass; settings: Table 19
# Description: as §2, §3, §4, §5
# [6] = tested on: large crabgrass (DIGSA, Digitaria sanguinalis); test: Greenhouse postemergence trial, visual injury on large crabgrass; settings: Table 19
# Description: as §2, §3, §4, §5
# [7] = tested on: soybean (GLXMA, Glycine max); test: Greenhouse postemergence trial, visual injury on soybean; settings: Table 19
# Description: as §2, §3, §4, §5
# [8] = tested on: kochia (KCHSC, Kochia scoparia); test: Greenhouse postemergence trial, visual injury on kochia; settings: Table 19
# Description: as §2, §3, §4, §5
# [9] = tested on: Italian ryegrass (LOLMU, Lolium multiflorum); test: Greenhouse postemergence trial, visual injury on Italian ryegrass; settings: Table 19
# Description: as §2, §3, §4, §5
# [10] = tested on: wild pansy (VIOTR, Viola tricolor); test: Greenhouse postemergence trial, visual injury on wild pansy; settings: Table 19
# Description: as §2, §3, §4, §5
# [11] = CQC-mexyl 5 g/ha alone, Table 15
# [12] = CQC-mexyl 10 g/ha alone, Table 15
# [13] = CQC-mexyl 10 g/ha alone, Table 16
# [14] = CQC-mexyl 20 g/ha alone, Table 15
# [15] = CQC-mexyl 20 g/ha alone, Table 16
# [16] = CQC-mexyl 40 g/ha alone, Table 14
# [17] = CQC-mexyl 40 g/ha alone, Table 15
# [18] = CQC-mexyl 40 g/ha alone, Table 16
# [19] = CQC-mexyl 80 g/ha alone, Table 16
# [20] = CQC-mexyl 20 g/ha alone, Table 19
# [21] = CQC-mexyl 40 g/ha alone, Table 19
# [22] = CQC-mexyl 80 g/ha alone, Table 19
# [23] = Compound A 20 g/ha alone, Table 15
# [24] = Compound A 40 g/ha alone, Table 14
# [25] = Compound A 40 g/ha alone, Table 16
# [26] = Compound A 20 g/ha alone, Table 19
compound,measurement,setting,value
"CCCCCC(C)OC(=O)COc1ccc(Cl)c2cccnc12 (stereo not drawn) [CQC-mexyl, cloquintocet-mexyl]","% visual injury, Ob",[1]; [11],0%
same,"% visual injury, Ob",[1]; [12],0%
same,"% visual injury, Ob",[1]; [13],0%
same,"% visual injury, Ob",[1]; [14],0%
same,"% visual injury, Ob",[1]; [15],0%
same,"% visual injury, Ob",[1]; [16],0%
same,"% visual injury, Ob",[1]; [17],0%
same,"% visual injury, Ob",[1]; [18],0%
same,"% visual injury, Ob",[1]; [19],0%
same,"% visual injury, Ob",[1]; safener alone 5 g/ha,0%
same,"% visual injury, Ob",[1]; safener alone 10 g/ha,0%
same,"% visual injury, Ob",[1]; safener alone 20 g/ha,0%
same,"% visual injury, Ob",[1]; safener alone 40 g/ha,0%
same,"% visual injury, Ob",[2]; [11],0%
same,"% visual injury, Ob",[2]; [12],0%
same,"% visual injury, Ob",[2]; [13],0%
same,"% visual injury, Ob",[2]; [14],0%
same,"% visual injury, Ob",[2]; [15],0%
same,"% visual injury, Ob",[2]; [20],0%
same,"% visual injury, Ob",[2]; [16],0%
same,"% visual injury, Ob",[2]; [17],0%
same,"% visual injury, Ob",[2]; [18],0%
same,"% visual injury, Ob",[2]; [21],0%
same,"% visual injury, Ob",[2]; [19],0%
same,"% visual injury, Ob",[2]; [22],0%
same,"% visual injury, Ob",[2]; safener alone 40 g/ha,0%
same,"% visual injury, Ob",[3]; safener alone 5 g/ha,0%
same,"% visual injury, Ob",[3]; safener alone 10 g/ha,0%
same,"% visual injury, Ob",[3]; safener alone 20 g/ha,0%
same,"% visual injury, Ob",[3]; safener alone 40 g/ha,0%
same,"% visual injury, Ob",rice (ORYSA); CQC-mexyl 20 g/ha alone,0%
same,"% visual injury, Ob",rice (ORYSA); CQC-mexyl 40 g/ha alone,0%
same,"% visual injury, Ob",rice (ORYSA); CQC-mexyl 80 g/ha alone,0%
same,"% visual injury, Ob","[4]; CQC-mexyl 20 g/ha alone, Table 17",0%
same,"% visual injury, Ob",[4]; [20],0%
same,"% visual injury, Ob","[4]; CQC-mexyl 40 g/ha alone, Table 17",0%
same,"% visual injury, Ob",[4]; [21],0%
same,"% visual injury, Ob","[4]; CQC-mexyl 80 g/ha alone, Table 17",0%
same,"% visual injury, Ob",[4]; [22],0%
same,"% visual injury, Ob","[4]; CQC-mexyl 120 g/ha alone, Table 17",0%
same,"% visual injury, Ob",[5]; CQC-mexyl 20 g/ha alone,0%
same,"% visual injury, Ob",[5]; CQC-mexyl 40 g/ha alone,0%
same,"% visual injury, Ob",[5]; CQC-mexyl 80 g/ha alone,0%
same,"% visual injury, Ob",[6]; CQC-mexyl 20 g/ha alone,0%
same,"% visual injury, Ob",[6]; CQC-mexyl 40 g/ha alone,0%
same,"% visual injury, Ob",[6]; CQC-mexyl 80 g/ha alone,0%
same,"% visual injury, Ob",[7]; CQC-mexyl 20 g/ha alone,0%
same,"% visual injury, Ob",[7]; CQC-mexyl 40 g/ha alone,0%
same,"% visual injury, Ob",[7]; CQC-mexyl 80 g/ha alone,0%
same,"% visual injury, Ob",[8]; CQC-mexyl 20 g/ha alone,0%
same,"% visual injury, Ob",[8]; CQC-mexyl 40 g/ha alone,0%
same,"% visual injury, Ob",[8]; CQC-mexyl 80 g/ha alone,0%
same,"% visual injury, Ob",[9]; CQC-mexyl 20 g/ha alone,0%
same,"% visual injury, Ob",[9]; CQC-mexyl 40 g/ha alone,0%
same,"% visual injury, Ob",[9]; CQC-mexyl 80 g/ha alone,0%
same,"% visual injury, Ob",[10]; CQC-mexyl 20 g/ha alone,0%
same,"% visual injury, Ob",[10]; CQC-mexyl 40 g/ha alone,0%
same,"% visual injury, Ob",[10]; CQC-mexyl 80 g/ha alone,0%
"N#CCOC(=O)c1nc(-c2ccc3cc[nH]c3c2F)c(F)c(N)c1Cl [Compound A, cyanomethyl 4-amino-3-chloro-5-fluoro-6-(7-fluoro-1H-indol-6-yl)pyridine-2-carboxylate]","% visual injury, Ob",[1]; [23],15%
same,"% visual injury, Ob",[1]; [24],45%
same,"% visual injury, Ob",[1]; [25],40%
same,"% visual injury, Ob",[1]; herbicide alone 20 g/ha,15% and 25%
same,"% visual injury, Ob",[1]; herbicide alone 40 g/ha,45% and 40% and 23%
same,"% visual injury, Ob",[2]; [23],20%
same,"% visual injury, Ob",[2]; [26],25%
same,"% visual injury, Ob",[2]; [24],35%
same,"% visual injury, Ob",[2]; [25],35%
same,"% visual injury, Ob",[2]; herbicide alone 20 g/ha,20%
same,% visual injury Δ,[2]; herbicide alone 40 g/ha,0%
same,"% visual injury, Ob",[2]; herbicide alone 40 g/ha,35% and 25%
same,"% visual injury, Ob",[3]; herbicide alone 20 g/ha,60%
same,"% visual injury, Ob",rice (ORYSA); Compound A 20 g/ha alone,10%
same,"% visual injury, Ob",[4]; [26],95%
same,"% visual injury, Ob","[4]; Compound A 40 g/ha alone, Table 17",100%
same,"% visual injury, Ob","[4]; Compound A 40 g/ha alone, Table 18",100%
same,"% visual injury, Ob",[5]; Compound A 20 g/ha alone,0%
same,"% visual injury, Ob",[6]; Compound A 20 g/ha alone,30%
same,"% visual injury, Ob",[7]; Compound A 20 g/ha alone,100%
same,"% visual injury, Ob",[8]; Compound A 20 g/ha alone,97%
same,"% visual injury, Ob",[9]; Compound A 20 g/ha alone,5%
same,"% visual injury, Ob",[10]; Compound A 20 g/ha alone,30%
